As usually defined, the IC50 is the point on the concentration scale where inhibition reaches its midpoint. Low values mean greater potency, high ones weaker potency.

Consider ten molecules from patent US8277777B2, “Compound having affinity for amyloid” (Nihon Medi-Physics Co., Ltd., priority 2006, dated 2012).

The test system of data set [1] is Salmonella typhimurium TA100. The experiment in a line: reverse mutation test (Ames test), TA100. It is filed as cell-based. How it is done: (§1) In order to examine mutagenicity of Compound 1, Compound 2 and Compound 3, reverse mutation test using Salmonella typhimurium TA98 and TA100 (hereinafter referred to as Ames test) was conducted.
(§2) The test was conducted without addition of S9mix and with addition of S9mix. Dimethylsulfoxide was used as a negative control. A positive control was 2-(2-furyl)-3-(5-nitro-2-furyl)acrylamide in case S9mix was not added, and 2-aminoanthracene in case S9 mix was added.
(§3) The amount of each sample to be added to the test plate was 7 dosages (geometric ratio 4) with the maximum dose being 1250 μg/plate for Compound 1, and 7 dosages (geometric ratio 3) with the maximum dose being […] for Compound 2 and Compound 3. After a sample to be examined and a strain (TA98 or TA100), or a sample to be examined, S9mix and the strain were mixed together, the mixture was multilayered using soft agar on a medium of a test plate, and then incubated at 37° C. for 48 hours.
A general note: The Ames test uses bacterial strains that need an amino acid and regain growth without it when mutated back.

The subject of data set [2] is Salmonella typhimurium TA98 and TA100. The experiment in a line: Ames test, overall judgment. It is filed as cell-based. The following applies: regardless of addition of S9mix. How it is done:
as §1, §2, §3

For data set [3], the system named is Salmonella typhimurium TA98. The experiment in a line: reverse mutation test (Ames test), TA98. The data set is classed as cell-based. The protocol: as §1, §2, §3
In data set [4] the target is T1, amyloid (aggregated Aβ1-40) (Homo sapiens, UniProt P05067).
T1 construct: purchased Peptide Institute, INC
Kind of data set: in vitro amyloid binding test (inhibition of [125I]3′-I-BTA-0 binding). The settings on record: [125I]3′-I-BTA-0 400 pmol/L, amyloid 1 μmol/L, 0.1% BSA phosphate buffer pH 7.4, 22°C, 3 hours. The protocol: The resulting samples were placed in each well (about 0.3 mL in volume) of a 96-well microplate.
The measured radioactivity level was defined as the background radioactivity level, and used in the calculation of the inhibition ratio (hereinafter referred to as BG).
(9) Using the radioactivity levels measured above in (7) and (8), the inhibition ratio was determined by the following formula (1).
A graph in which values converted by probit transformation from the obtained inhibition ratios were plotted relative to logarithms of concentrations of compounds for evaluation was prepared to obtain an approximate straight line by the least square method. Using the line, the concentration of each compound for evaluation was determined, at which the radioactivity level is half of the level of the sample free from each compound for evaluation, and was defined as a 50% inhibition concentration of each compound (hereinafter referred to as IC50% value).

The nature of data set [5]: partition coefficient based on HPLC. It is filed as physicochemical. The following applies: mobile phase 50 mM triethylamine phosphate (pH 7.2)/acetonitrile=40/60, formula (4). The protocol:
The partition coefficient by HPLC (hereinafter referred to as log PHPLC) was measured by the following method.
First, compounds for evaluation shown in Table 5 were dissolved at a concentration of 1 mg/mL in methanol containing 10% dimethylsulfoxide to prepare sample solutions. One μL of the sample solution was subjected to HPLC analysis under the following conditions to determine the elution time (tO) of the solvent and the elution time (tR) of each compound.
Column: Prodigy ODS (3) (product name; manufactured by phenomenex; size: 4.6×250 mm)
Mobile phase: a mixed solution of 50 mM triethylamine phosphate (pH 7.2)/acetonitrile=40/60
Detector: ultraviolet visible absorptiometer (detection wavelength: 282 nm)
Using the obtained tO and tR, the retention factor (hereinafter referred to as K′HPLC value) of each compound for evaluation was determined according to the calculation formula (3). K′HPLC=(tR−t0)/t0 (3) […]
Using K′HPLC obtained for each compound for evaluation, the log PHPLC value of each compound for evaluation was determined according to the above calculation formula (4).

The conditions of data set [6]: [125I]-labeled, normal mice, cited from earlier work; for transfer into brain: 2 minutes after administration.
Data set [7] has as its system amyloid. The settings on record: [125I]-labeled; cited from earlier work.
For data set [8] the following is noted: [11C]-labeled, rats; cited from earlier work.
A short description of data set [9]: partition coefficient based on the octanol extraction method. The data set is classed as physicochemical. The following applies: octanol / 10 mmol/L phosphate buffer (pH 7.4), radioactivity. The protocol:
Partition coefficients based on the octanol extraction method (hereinafter referred to as log Poctanol) were measured, which are generally used as an indicator of permeability of compounds through the blood-brain barrier (hereinafter referred to as BBB).
To 2 mL of octanol, 10 μL of a solution containing Compound 4 (Example 5) and 2 mL of a 10 mmol/L phosphate buffer (pH 7.4) were added and stirred for 30 seconds. After the mixture was centrifuged (2000 rpm×60 min.) with a low-speed centrifuge (model: […] CT4D manufactured by Hitachi Koki Co., Ltd.), the octanol layer and the water layer were sampled each in an amount of 1 mL, and subjected to measurement of radioactivity with an autowell gamma system (manufactured by Aloka, Type: ARC-301B). Using the obtained radioactivity, log Poctanol was calculated in accordance with the equation (2).

The nature of data set [10]: transferability into brain and clearance. The settings on record: rats, intravenous injection. The protocol: Using Compound 4, a time course change of radioactive accumulation in brain of male Wistar rats (7-week old) was measured.
The rats were sacrificed by bleeding from abdominal artery, and brains were removed and subjected to measurement of radioactivity (hereinafter referred to as A in this Example) with an autowell gamma system (Type: ARC-301B manufactured by Aloka Co., Ltd.) and further subjected to measurement of mass of brains 2, 5, 30 and 60 minutes after the injection. Also, radioactivity (hereinafter referred to as B in this Example) of 0.05 mL of a 1000-fold diluted solution of the injected solution was measured in the same manner as above. Using these measurement results, radioactive distributions per unit weight of brain (% ID/g) at the respective time points were calculated in accordance with the following formula (5). Three animals were used for experiment at the respective time points.

[11] abbreviates: TA100, without addition of S9mix.
The mark [12] stands for this setting: TA98, without addition of S9mix.

Molecules are shown by their SMILES. Where two headings read alike, the source gives them in different places.

T1 sequence (P05067 672-711 limits assumed): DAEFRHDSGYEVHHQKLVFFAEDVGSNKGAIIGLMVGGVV

Take `COc1ccc2nc(-c3ccc(OCCCF)cc3)cn2c1` [Compound 1, 2-[4′-(3″-fluoropropoxy)phenyl]-6-methoxyimidazo[1,2-a]pyridine]: the Mutagenicity entry in data set [1] (TA100, with addition of S9mix) is “Negative”; in data set [1] (setting [11]) it was “Negative”; in [3] (TA98, with addition of S9mix) it was “Negative”; in data set [3] (setting [12]), “Negative”. Further, the Ames test judgment result in data set [2] is listed as “negative”. This molecule also gave a concentration for half-maximal inhibition (IC50) in [4] of 1.1 nM.
Turning to `Oc1ccc2nc(-c3ccc(OCCCF)cc3)cn2c1` [Compound 2, 2-[4′-(3″-fluoropropoxy)phenyl]-6-hydroxyimidazo[1,2-a]pyridine], the Mutagenicity entry was “Negative” in data set [1] (TA100, with addition of S9mix); “Negative” in [1] (setting [11]); “Negative” in data set [3] (TA98, with addition of S9mix); “Negative” in [3] (setting [12]). Further, the Ames test judgment entry in data set [2] is recorded as “negative”. Moreover, the IC50 in [4] is 30.5 nM.
`FCCCOc1ccc(-c2cn3ccccc3n2)cc1` [Compound 3, 2-[4′-(3″-fluoropropoxy)phenyl]imidazo[1,2-a]pyridine]: the Mutagenicity entry in data set [1] (TA100, with addition of S9mix) is listed as “Negative”; in [1] (setting [11]), “Negative”; in data set [3] (TA98, with addition of S9mix), “Negative”; in [3] (setting [12]), “Negative”. Further, in [2], the Ames test judgment entry is “negative”. In data set [4], the IC50 turned out to be 36.6 nM. The chromatographic logP in data set [5] (read-out: logPHPLC value) is 1.7.
`Nc1c(/N=N/c2ccc(-c3ccc(/N=N/c4cc(S(=O)(=O)O)c5ccccc5c4N)cc3)cc2)cc(S(=O)(=O)O)c2ccccc12` [Congo Red, reference compound] gave an IC50 in data set [4] above 1000 nM.
Turning to `CN(C)c1ccc(-c2nc3ccc(I)cc3o2)cc1` [IBOX, 6-iodo-2-[4′-(N,N-dimethylamino)phenyl]benzoxazole], in data set [6], the transfer into brain result is “transferred into brain” and the “clearance from normal tissues” value is “insufficient in clearance from normal tissues”.
Turning to `CN(C)c1ccc(-c2cn3cc(I)ccc3n2)cc1` [IMPY, 6-iodo-2-[4′-(N,N-dimethylamino)phenyl]imidazo[1,2-a]pyridine], in data set [7], the “clearance from normal tissues” value is “rapid clearance from normal tissues”; the “transfer to brain and accumulation at amyloid after administration” value is “transferring to brain and accumulating at amyloid”. In addition, the logPHPLC value in [5] was found to be 2.1.
Regarding `CNc1ccc(/C=C/c2ccc(O)cc2)cc1` [SB-13, (E)-4-methylamino-4′-hydroxystilbene], the “clearance from normal tissues” value in data set [8] is recorded as “it cannot be said that the clearance is sufficiently fast”.
As to `CN(C)c1ccc(-c2nc3ccc(I)cc3s2)cc1` [TZDM, 6-iodo-2-[4′-(N,N-dimethylamino)phenyl]benzothiazole], in data set [6], the transfer into brain result is “transferred into brain” and the “clearance from normal tissues” value is reported as “insufficient in clearance from normal tissues”.
Regarding `CN(C)c1ccc(-c2cn3cc([123I])ccc3n2)cc1` [[^123I]-IMPY, reference compound], the logPoctanol value in data set [9] is 2.1. Besides, the “Radioactive concentration per unit weight in brain” value in [10] (after 2 min.) was 1.02 % ID/g; in data set [10] (after 5 min.), 0.99 % ID/g; in [10] (after 30 min.) it was 0.20 % ID/g; in [10] (after 60 min.) it was 0.08 % ID/g.
As to `CN(C)c1ccc(/C=C/c2ccc(I)cc2)cc1` [m-I-SB, (E)-4-dimethylamino-4′-iodostilbene], in [6], the transfer into brain result is given as “transferred into brain” and the “clearance from normal tissues” value is “insufficient in clearance from normal tissues”.
